Data: US10821099B2, “Use of tradipitant in motion sickness” (Vanda Pharmaceuticals Inc., priority 2018, dated 2020)
Where two headings read alike, the source gives them in different places. Values belong to the compound of their own block, whether it stands above or below them.

How the values were obtained:
[1] = tested on: NK-1 agonist (GR73632)-induced foot-tapping behavior; test: NK-1 agonist (GR73632, icv)-induced foot-tapping behavior in gerbils; assay type: in vivo, Mongolian gerbil
Experimental: Immediately after injection, animals are placed individually into isolated chambers with pressure-sensitive velocimeter platform floors (San Diego Instruments acoustic startle apparatus) that detect and quantify vibration. The San Diego Instruments “SR” DOS-based computer program is used on a PC to record the number of foot-taps over the following 6 to 10 minutes, beginning 30 seconds after the floor is lightly tapped. Raw data are converted with a Microsoft® Excel® (Microsoft® and Excel® are registered trademarks of Microsoft Corp., Redmond, Wash.) macro that determines the number of events over threshold (125) in each 250-millisecond time bin over the 5.5 minutes following onset of observation. The total number and average intensity of events over the duration is determined. Total number of taps is analyzed with one-way ANOVA and post-hoc Dunnett's test using JMP statistical software. A dose-response curve (with doses of 0.3, 1, 3 and 10 pmols, icv) is initially generated with the NK-1 agonist GR73632. […] NK-1 antagonists are tested for their ability to attenuate GR73632-induced foot tapping. NK-1 antagonists are administered (po) via oral feeding tube at doses and time points specified in each experiment. All animals receive only one dose of NK-1 antagonists in all tests. NK-1 antagonists are administered at multiple doses (at least 3; one dose per animal) and response to GR73632 is measured. NK-1 receptor antagonists are administered at multiple pre-treatment times (one administration per animal) including at 0.5, 1, 2, 4, 7, 16, and 24 hours prior to GR73632 injection. GR73632 (Peninsula Labs, CA) is dissolved in saline. Tradipitant is dissolved in 1% CMC/0.5% SLS/0.085% PVP vehicle.

[2] = tested on: vomiting due to motion sickness; conditions: crossover study; cited from earlier work
[3] = tested on: panel of 74 other receptors, enzymes, and ion channels; test: Binding panel of 74 other receptors, enzymes and ion channels
[4] = target: T1, NK-2 receptor (Homo sapiens, UniProt P21452); test: NK-2 receptor inhibition; assay type: binding
T1 sequence (P21452 1-398): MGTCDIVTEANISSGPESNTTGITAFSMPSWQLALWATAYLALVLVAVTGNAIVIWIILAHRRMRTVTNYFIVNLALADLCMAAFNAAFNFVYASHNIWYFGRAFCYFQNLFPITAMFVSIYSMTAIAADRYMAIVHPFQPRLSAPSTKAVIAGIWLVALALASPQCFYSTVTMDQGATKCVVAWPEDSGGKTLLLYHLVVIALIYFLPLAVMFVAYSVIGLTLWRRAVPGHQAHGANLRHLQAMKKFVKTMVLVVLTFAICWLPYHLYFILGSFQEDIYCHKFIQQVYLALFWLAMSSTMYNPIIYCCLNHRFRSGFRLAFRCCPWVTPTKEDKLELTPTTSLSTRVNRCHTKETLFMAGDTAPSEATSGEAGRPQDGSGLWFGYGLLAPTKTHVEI

[5] = target: T2, NK-3 receptor (Homo sapiens, UniProt P29371); test: NK-3 receptor inhibition; assay type: binding
T2 sequence (P29371 1-465): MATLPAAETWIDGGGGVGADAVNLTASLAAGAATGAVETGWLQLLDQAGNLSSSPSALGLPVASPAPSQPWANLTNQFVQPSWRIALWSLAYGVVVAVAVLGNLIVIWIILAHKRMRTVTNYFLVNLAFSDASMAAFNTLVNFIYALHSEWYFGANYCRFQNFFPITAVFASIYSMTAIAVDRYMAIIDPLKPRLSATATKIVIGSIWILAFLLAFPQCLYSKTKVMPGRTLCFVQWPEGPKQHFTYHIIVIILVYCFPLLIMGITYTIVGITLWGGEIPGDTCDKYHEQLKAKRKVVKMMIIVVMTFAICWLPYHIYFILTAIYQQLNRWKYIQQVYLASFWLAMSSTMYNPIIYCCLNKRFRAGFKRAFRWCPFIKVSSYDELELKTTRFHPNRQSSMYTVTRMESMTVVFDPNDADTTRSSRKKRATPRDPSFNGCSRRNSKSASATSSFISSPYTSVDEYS

[6] = tested on: apomorphine-induced emesis; test: Emetic challenge study (apomorphine-induced emesis) in beagle dogs; assay type: in vivo, beagle dog; conditions: each dose tested (0.3, 1.0, and 3.0 mg/kg)
Experimental: Each animal is administered a different dose on a particular dosing day, so that each dose of tradipitant, aprepitant, and apomorphine alone is represented. Over the five (5) weeks of the study, each animal receives each of the treatments, but only one per week. The purpose of this study is to determine if tradipitant suppresses apomorphine-induced emesis.
(§1) All animals are dosed over a period of five (5) weeks, with each dog receiving one of five different treatments on each day of dosing. […] In cases where apomorphine is administered alone, without prior treatment with tradipitant or aprepitant, apomorphine is given at approximately the same time as when given in combination with tradipitant or aprepitant.
All dogs are fasted overnight prior to each treatment day and then fed approximately one (1) hour after oral dosing (approximately one (1) hour prior to administration of apomorphine). Individual doses are adjusted weekly for changes in body weight.
The dose regimen consists of a 5×5 Latin square design, in which each subject receives 1 dose or dose combination per week (6 day washout) as shown in Table 3 below.

[7] = Plasma concentration of tradipitant 2 hours post-dose in dogs; assay type: in vivo; conditions: male, beagle, dog, oral, read-out: Concentration of tradipitant in plasma, Mean (SD)
Experimental: as §1

[8] = tested on: NK-1 agonist (GR73632)-induced vocalization; test: GR73632-induced vocalization in guinea pigs; assay type: in vivo, guinea pig
Experimental: Male Dunkin/Hartley guinea pigs (200 to 250 grams) are orally administered either vehicle or an NK-1 antagonist. Approximately 45 minutes later (for dose response studies), the animals are anesthetized and 0.1 nmol of GR73632 (SP analog) in a vehicle volume of 5 μl is injected into the cerebral ventricle at the intersection of bregma and the midline of the skull. Animals are placed in a dark testing chamber located inside of a sound attenuation cubicle and vocalizations are recorded for 30 minutes following recovery from anesthesia. The time spent vocalizing is quantified for each animal. In the duration of action study, 0.1 mg/kg of tradipitant or vehicle solution is administered orally and then 2, 4, or 7 hours later, 0.1 nmol of GR73632 is administered into the cerebral ventricle as described above. Vocalizations are recorded and quantified as indicated above. Vehicle solutions are either CMC (FIG. 4 data) or an ethanol/emulphor solution (FIGS. 5 and 6). Data is analyzed using one-tailed t-tests.

[9] = target: T3, NK-1 receptor (Homo sapiens, UniProt P25103); test: SP-induced mobilization of intracellular calcium in U373 cells; assay type: cell-based; parameters: mobilization of intracellular calcium in U373 cells; endogenous in cells; host or cells: U373 cells
[10] = target: T3, NK-1 receptor; test: [125I] substance P binding to the NK-1 receptor, IM-9 human cell membrane binding; parameters: NK-1 receptor expressed by IM-9 cells; endogenous in cells; host or cells: IM-9 human cells (membranes); conditions: Table 1

T3 sequence (P25103 whole entry): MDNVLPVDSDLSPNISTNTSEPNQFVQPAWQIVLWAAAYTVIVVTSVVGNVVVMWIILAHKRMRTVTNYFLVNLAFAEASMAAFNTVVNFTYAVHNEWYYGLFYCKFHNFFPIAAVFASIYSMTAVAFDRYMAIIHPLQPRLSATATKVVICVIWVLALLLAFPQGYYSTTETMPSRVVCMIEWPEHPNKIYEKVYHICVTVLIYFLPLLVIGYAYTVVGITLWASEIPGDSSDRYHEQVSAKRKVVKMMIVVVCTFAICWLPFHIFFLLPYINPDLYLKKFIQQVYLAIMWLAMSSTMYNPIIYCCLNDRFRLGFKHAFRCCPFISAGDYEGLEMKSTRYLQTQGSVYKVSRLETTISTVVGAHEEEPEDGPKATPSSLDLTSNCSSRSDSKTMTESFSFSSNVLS

Structure (SMILES): C[C@@H](O[C@H]1OCCN(Cc2n[nH]c(=O)[nH]2)[C@H]1c1ccc(F)cc1)c1cc(C(F)(F)F)cc(C(F)(F)F)c1 [Aprepitant, reference compound]
time after administration up to which foot-tapping is inhibited ([1]; 1 mg/kg): up to 24 hours

Structure (SMILES): COc1ccc(C(C)(C)C)cc1CN[C@H]1C2CCN(CC2)[C@H]1C(c1ccccc1)c1ccccc1 [Maropitant]
dogs in which the occurrence of vomiting was reduced as compared to placebo [2]: over 75%

activity in panel of 74 additional receptors, enzymes, and ion channels including NK-2 and NK-3 receptors [3]: No significant activity
inhibition of binding ([3]; test concentration of 1 μM): ≤ 50%
inhibition at the NK-2 receptor [4]: no significant inhibition
inhibition at the NK-3 receptor [5]: no significant inhibition
concentration at 2 h ([7]; 0.3 mg/kg, 0.3 mg/kg oral): 57.9 ng/mL
concentration at 2 h ([7]; 1 mg/kg, 1.0 mg/kg oral): 133 ng/mL
concentration at 2 h ([7]; 3 mg/kg, 3.0 mg/kg oral): 300 ng/mL
Kb [9]: 0.095 nM
Ki [10]: 0.062 nM
Structure (SMILES): O=C(c1ccccc1Cl)c1cccnc1-c1nnn(Cc2cc(C(F)(F)F)cc(C(F)(F)F)c2)c1-c1ccncc1 [Tradipitant, {2-[1-(3,5-bistrifluoromethylbenzyl)-5-pyridin-4-yl-1H-[1,2,3]triazol-4-yl]-pyridin-3-yl}-(2-chlorophenyl)-methanone]
time after administration up to which foot-tapping is significantly inhibited ([1]; 0.1 mg/kg, po): up to 7 hours
effect on foot-tapping by 16 hours after administration ([1]; 0.1 mg/kg, po, 16 hours): significantly diminished
inhibition at 1 mg/kg ([1]; Meriones unguiculatus, po, 1 mg/kg, 16 hours after administration): > 50%
ED50 ([1]; Meriones unguiculatus, oral, 2 hours after administration, GR73632 3 pmol icv, read-out: ED50, inhibition of foot-tapping behavior): 0.03 ± 0.004 mg/kg
efficacy against apomorphine-induced emesis [6]: effective against apomorphine-induced emesis
suppression of agonist-induced vocalization at 7 hours ([8]; 0.1 mg/kg oral, 7 hours after administration): significantly active
duration of activity ([8]; administered orally): exceeds 7 hours
inhibitory activity on vocalization at and below 0.1 mg/kg ([8]; at and below 0.1 mg/kg oral, FIG. 6): retains significant inhibitory activity
inhibition of agonist-induced vocalization ([8]; oral doses of 10, 1.0, 0.1 and 0.05 mg/kg (each p<0.001), FIG. 4): significant inhibition
minimum effective dose (MED), inhibition of vocalization ([8]; oral, p<0.001 compared to controls): 0.025 mg/kg
